d = 2'-deoxy (DNA); r = 2'-OH (RNA)
Tests used:
MG63 and HOB cells = assay: Cell proliferation / toxicity by MTS assay; assay type: cell-based, human; conditions: 50 and 100 nM, 24 h post transfection
Description: Cell proliferation was assessed by MTS (3-(4,5-dimethylthiazol-2-yl)-5-(3-carboxymethoxyphenyl)-2-(4-sulfophenyl)-2H-tetrazolium, inner salt) reagent assay: MG63 cells were seeded at a density of 35 000 cells in 24-well culture plates, and cultured for 24 hours as mentioned above. Cells were transfected with 50 nM or 100 nM concentrations of cpRNA and negative control siRNAs with or without MATra-si, while control wells were left untreated. Each transfection experiment was performed in triplicate. Post-transfection, cells were incubated for 24 hours at 37° C. The viable cells were evaluated by MTS assay, using CellTiter 96®AQueousOne Solution Cell Proliferation Assay (Promega, USA) according to the manufacturer's protocol. The enzymatic reduction in MTS to formazan was quantified by an ELISA plate reader (Thermo Scientific) at 490 nm.
Thus, the role of siRNA topography on immune activation and cellular toxicity was investigated because increased RNA length has been reported to cause toxicity with increased interferon (IFN)-β expression. toxicity studies were performed using the MTS assay with two concentrations of GAPDH siRNA (50 and 100 nM) with different overhang lengths (dT2, dT5, and dT8) in MG63 and HOB cells and compared it with the scrambled siRNA sequence (FIG. 5).

GAPDH = assay: Carrier-free GAPDH knockdown in different cell types (HOB, HCT116, MG63) by RT-PCR; assay type: cell-based, human
Description: Primary human osteoblast (HOB) cells isolated from human trabecular bone and keratinocytes and fibroblasts cells were isolated from skin tissue from healthy human donors. MG63 (human osteosarcoma cell line), HCT116 (human colon cancer cell line), HEK293 (human embryonic kidney 293 cells), C2C12 (mouse myoblast cell line) and MC3T3 (mouse osteoblast precursor cell line) cell lines were obtained from American Type Culture Collection, ATCC (Manassas, Va., USA). Cells were cultured until confluence was reached. The human cell experiments were approved by the local ethics committee (Ethical approval # Ups 03-561).
At 70% confluency, a day prior to transfection, the cells were seeded at a density of 35 000 cells in a 24-well cell culture plate to achieve 60-80% confluence at the day of transfection. Cell penetrating siRNAs (cpRNAs) of different lengths were transfected at 50 nM concentrations with Magnet Assisted Transfection (MATra-si) reagent for siRNAs (IBA GmbH, Göttingen, Germany) according to the manufacturers' protocols. […]
cDNA synthesis was performed in triplicate using total RNA reverse transcribed using High Capacity cDNA reverse transcription kit (Applied Biosystems, USA), with non-template control added to ensure a lack of signal in assay background. […] Data from samples with a Ct value equal to or below 35 were further analyzed. Samples were normalized relative to endogenous control and differences in cycle number thresholds were calculated using comparative quantitation 2^−ΔΔcT method (also called the ΔΔCT method), commonly used for analyzing siRNA induced gene knockdown efficiency.
The formulas used to calculate gene knockdown were as follows: First, the ΔCT was calculated as the mean cycle threshold for the target gene minus the mean cycle thresholds for the endogenous controls ACTB, each performed in triplicates: ΔCT=CT (target gene)−CT (endogenous control). Secondly, the ΔΔCT was calculated as the ΔCT of the target minus the ΔCT of negative control (NC): ΔΔCT=ΔCT (target)−ΔCT (NC). […]

[1] = Thermal denaturation (Tm) of siRNA duplexes; assay type: physicochemical; conditions: for Tm: 7.5 mM phosphate buffer pH 7.0 containing 140 mM KCl, 1 μM strands, 40-95° C.
Description: Thermal denaturation studies of siRNA was carried out in phosphate buffer, pH 7.0, containing 140 mM KCl. UV absorbance was monitored at 260 nm in the temperature range from 40 to 95° C. using a Lambda 35 UV-Vis spectrophotometer equipped with a Peltier temperature programmer with a heating rate of 0.5° C./min. Samples (1 μM RNA) were denatured at 90° C. for 3 min followed by slow cooling to 27° C. prior to the measurements. Tm values were obtained from the maxima of the first derivatives of the melting curves. All Tm values given are the averages of three independent sets of experiments (±0.3° C. error range).

dT2: Canonical GAPDH siRNA, sense SEQ ID NO: 1, antisense SEQ ID NO: 2, dTdT 3′-overhang on both strands (sense CCGAGCCACAUCGCUCAGATT; antisense UCUGAGCGAUGUGGCUCGGTT; sugars from the 5' end r19 d2, backbone not given here) [reference compound]
cytotoxicity (MTS assay) (MG63 and HOB cells): do not impose toxicity | RNAi activity in primary cells (GAPDH; primary cells): only limited activity | Tm [1]: 81.2 °C

dT5: GAPDH siRNA, sense SEQ ID NO: 3 with dT5 3′-overhang, antisense SEQ ID NO: 2 with dT2 (sense CCGAGCCACAUCGCUCAGATTTTT; antisense UCUGAGCGAUGUGGCUCGGTT; sense: sugars from the 5' end r19 d5, backbone not given here; antisense: sugars from the 5' end r19 d2, backbone not given here)
cytotoxicity (MTS assay) (MG63 and HOB cells): do not impose toxicity | GAPDH gene knockdown in different cell types (GAPDH; 50 nM): 80% | knockdown efficiency compared to canonical siRNA (GAPDH; HOB, HCT116 and MG63 cells): 3-4 fold | Tm [1]: 80.6 °C | Δ Tm ([1]; Tm relative to canonical siRNA (dT2)): −0.6 °C | drop in Tm ([1]; as compared to canonical siRNA): about 0.5 °C
